Values joined by “and” are separate entries in the source; they are usually repeats but may differ in a detail not shown here. Identical values can stand only once. ± gives the expanded uncertainty stated by the source.
Columns and labels:
[1] = Molar enthalpy of transition or fusion; conditions: Crystal; Adiabatic calorimetry

Cc1cc2ccccc2[nH]1 [2-methylindole]
Molar enthalpy of transition or fusion [1]: 3.547 ± 0.00765 kcal/mol
molar entropy (10 K, Crystal, Vacuum adiabatic calorimetry): 0.7816 ± 0.025 J/K/mol
molar entropy (20 K, Crystal, Vacuum adiabatic calorimetry): 5.097 ± 0.058 J/K/mol
molar entropy (30 K, Crystal, Vacuum adiabatic calorimetry): 11.88 ± 0.075 J/K/mol
molar entropy (40 K, Crystal, Vacuum adiabatic calorimetry): 19.5 ± 0.1 J/K/mol
molar entropy (50 K, Crystal, Vacuum adiabatic calorimetry): 27.26 ± 0.13 J/K/mol
molar entropy (60 K, Crystal, Vacuum adiabatic calorimetry): 34.95 ± 0.16 J/K/mol
molar entropy (70 K, Crystal, Vacuum adiabatic calorimetry): 42.45 ± 0.18 J/K/mol
molar entropy (80 K, Crystal, Vacuum adiabatic calorimetry): 49.75 ± 0.21 J/K/mol
molar entropy (90 K, Crystal, Vacuum adiabatic calorimetry): 56.85 ± 0.32 J/K/mol
molar entropy (100 K, Crystal, Vacuum adiabatic calorimetry): 63.76 ± 0.34 J/K/mol
molar entropy (120 K, Crystal, Vacuum adiabatic calorimetry): 77.12 ± 0.37 J/K/mol
molar entropy (140 K, Crystal, Vacuum adiabatic calorimetry): 89.97 ± 0.41 J/K/mol
molar entropy (160 K, Crystal, Vacuum adiabatic calorimetry): 102.47 ± 0.44 J/K/mol
molar entropy (180 K, Crystal, Vacuum adiabatic calorimetry): 114.71 ± 0.48 J/K/mol
molar entropy (200 K, Crystal, Vacuum adiabatic calorimetry): 126.76 ± 0.52 J/K/mol
molar entropy (220 K, Crystal, Vacuum adiabatic calorimetry): 138.69 ± 0.55 J/K/mol
molar entropy (240 K, Crystal, Vacuum adiabatic calorimetry): 150.54 ± 0.58 J/K/mol
molar entropy (260 K, Crystal, Vacuum adiabatic calorimetry): 162.33 ± 0.62 J/K/mol
molar entropy (280 K, Crystal, Vacuum adiabatic calorimetry): 174.1 ± 0.66 J/K/mol
mass density (298.15 K, 101.33 kPa, Liquid, From volume and mass of a pressed pellet): 1070 ± 43 kg/m3
molar entropy (298.15 K, Crystal, Vacuum adiabatic calorimetry): 184.78 ± 0.69 J/K/mol
molar entropy (298.15 K, Liquid, Vacuum adiabatic calorimetry): 224.56 ± 0.81 J/K/mol
molar entropy (300 K, Crystal, Vacuum adiabatic calorimetry): 185.87 ± 0.69 J/K/mol
molar entropy (300 K, Liquid, Vacuum adiabatic calorimetry): 225.95 ± 0.81 J/K/mol
molar entropy (320 K, Crystal, Vacuum adiabatic calorimetry): 197.68 ± 0.73 J/K/mol
molar entropy (320 K, Liquid, Vacuum adiabatic calorimetry): 240.78 ± 0.86 J/K/mol
molar entropy (331.97 K, Crystal, Vacuum adiabatic calorimetry): 204.77 ± 0.75 J/K/mol
molar entropy (331.97 K, Liquid, Vacuum adiabatic calorimetry): 249.48 ± 0.89 J/K/mol
vapor or sublimation pressure (339.98 K, Liquid, Inclined piston gauge): 0.022 ± 0.0008 kPa
vapor or sublimation pressure (339.99 K, Liquid, Inclined piston gauge): 0.022 ± 0.0008 kPa
molar entropy (340 K, Liquid, Vacuum adiabatic calorimetry): 255.25 ± 0.91 J/K/mol
mass density (342 K, 101.33 kPa, Liquid, Pycnometric method): 1020 ± 20 kg/m3
vapor or sublimation pressure (349.98 K, Liquid, Inclined piston gauge): 0.0439 ± 0.0008 kPa
vapor or sublimation pressure (359.98 K, Liquid, Inclined piston gauge): 0.0849 ± 0.0009 kPa
molar entropy (360 K, Liquid, Vacuum adiabatic calorimetry): 269.41 ± 0.95 J/K/mol
vapor or sublimation pressure (369.98 K, Liquid, Inclined piston gauge): 0.1565 ± 0.0009 kPa and 0.1564 ± 0.0009 kPa
vapor or sublimation pressure (379.98 K, Liquid, Inclined piston gauge): 0.2769 ± 0.001 kPa
molar entropy (380 K, Liquid, Vacuum adiabatic calorimetry): 283.28 ± 0.99 J/K/mol
vapor or sublimation pressure (389.98 K, Liquid, Inclined piston gauge): 0.4731 ± 0.0012 kPa
vapor or sublimation pressure (399.97 K, Liquid, Inclined piston gauge): 0.7822 ± 0.0014 kPa
molar entropy (400 K, Liquid, Vacuum adiabatic calorimetry): 296.88 ± 1 J/K/mol
vapor or sublimation pressure (409.97 K, Liquid, Inclined piston gauge): 1.255 ± 0.0018 kPa
vapor or sublimation pressure (419.96 K, Liquid, Inclined piston gauge): 1.958 ± 0.0023 kPa
molar entropy (420 K, Liquid, Vacuum adiabatic calorimetry): 310.21 ± 1.1 J/K/mol
vapor or sublimation pressure (424.96 K, Liquid, Inclined piston gauge): 2.423 ± 0.0027 kPa
vapor or sublimation pressure (424.97 K, Liquid, Inclined piston gauge): 2.423 ± 0.0027 kPa
vapor or sublimation pressure (427.25 K, Liquid, Twin ebulliometer): 2.666 ± 0.0079 kPa
vapor or sublimation pressure (429.96 K, Liquid, Inclined piston gauge): 2.979 ± 0.0032 kPa
vapor or sublimation pressure (437.34 K, Liquid, Twin ebulliometer): 4 ± 0.0079 kPa
molar entropy (440 K, Liquid, Vacuum adiabatic calorimetry): 323.28 ± 1.1 J/K/mol
vapor or sublimation pressure (444.87 K, Liquid, Twin ebulliometer): 5.333 ± 0.008 kPa
vapor or sublimation pressure (456.04 K, Liquid, Twin ebulliometer): 7.999 ± 0.008 kPa
molar entropy (460 K, Liquid, Small sample (50 mg) DSC): 336.12 ± 7.8 J/K/mol
vapor or sublimation pressure (464.4 K, Liquid, Twin ebulliometer): 10.67 ± 0.008 kPa
vapor or sublimation pressure (471.16 K, Liquid, Twin ebulliometer): 13.33 ± 0.008 kPa
vapor or sublimation pressure (478.17 K, Liquid, Twin ebulliometer): 16.66 ± 0.009 kPa
molar entropy (480 K, Liquid, Small sample (50 mg) DSC): 348.73 ± 8.1 J/K/mol
vapor or sublimation pressure (483.99 K, Liquid, Twin ebulliometer): 19.93 ± 0.009 kPa
vapor or sublimation pressure (491.65 K, Liquid, Twin ebulliometer): 25.02 ± 0.009 kPa and 25.02 ± 0.01 kPa
vapor or sublimation pressure (499.35 K, Liquid, Twin ebulliometer): 31.18 ± 0.011 kPa
molar entropy (500 K, Liquid, Small sample (50 mg) DSC): 361.11 ± 8.4 J/K/mol
vapor or sublimation pressure (507.08 K, Liquid, Twin ebulliometer): 38.56 ± 0.012 kPa
vapor or sublimation pressure (514.86 K, Liquid, Twin ebulliometer): 47.38 ± 0.014 kPa
molar entropy (520 K, Liquid, Small sample (50 mg) DSC): 373.29 ± 8.7 J/K/mol
vapor or sublimation pressure (522.68 K, Liquid, Twin ebulliometer): 57.82 ± 0.016 kPa
vapor or sublimation pressure (530.55 K, Liquid, Twin ebulliometer): 70.12 ± 0.018 kPa
vapor or sublimation pressure (538.45 K, Liquid, Twin ebulliometer): 84.53 ± 0.02 kPa
molar entropy (540 K, Liquid, Small sample (50 mg) DSC): 385.27 ± 9 J/K/mol
vapor or sublimation pressure (546.4 K, Liquid, Twin ebulliometer): 101.33 ± 0.023 kPa
vapor or sublimation pressure (554.39 K, Liquid, Twin ebulliometer): 120.79 ± 0.03 kPa
molar entropy (560 K, Liquid, Small sample (50 mg) DSC): 397.05 ± 9.2 J/K/mol
vapor or sublimation pressure (562.43 K, Liquid, Twin ebulliometer): 143.25 ± 0.03 kPa
vapor or sublimation pressure (570.5 K, Liquid, Twin ebulliometer): 169.02 ± 0.04 kPa
vapor or sublimation pressure (578.62 K, Liquid, Twin ebulliometer): 198.49 ± 0.04 kPa
molar entropy (580 K, Liquid, Small sample (50 mg) DSC): 408.64 ± 9.5 J/K/mol
vapor or sublimation pressure (586.77 K, Liquid, Twin ebulliometer): 232.02 ± 0.04 kPa
vapor or sublimation pressure (594.97 K, Liquid, Twin ebulliometer): 270.02 ± 0.05 kPa
molar entropy (600 K, Liquid, Small sample (50 mg) DSC): 420.05 ± 9.8 J/K/mol
molar entropy (620 K, Liquid, Small sample (50 mg) DSC): 431.28 ± 10 J/K/mol
molar entropy (640 K, Liquid, Small sample (50 mg) DSC): 442.34 ± 10 J/K/mol
molar entropy (660 K, Liquid, Small sample (50 mg) DSC): 453.23 ± 11 J/K/mol
molar entropy (680 K, Liquid, Small sample (50 mg) DSC): 463.97 ± 11 J/K/mol
molar entropy (700 K, Liquid, Small sample (50 mg) DSC): 474.57 ± 11 J/K/mol
mass density (788.8 K, Gas, DSC): 176.5 ± 8.9 kg/m3
mass density (795.1 K, Liquid, DSC): 470.4 ± 24 kg/m3
mass density (800.7 K, Liquid, DSC): 433.9 ± 22 kg/m3
mass density (802.9 K, Liquid, DSC): 399.3 ± 20 kg/m3
mass density (803 K, Gas, DSC): 183.3 ± 12 kg/m3
mass density (803.6 K, Liquid, DSC): 360.9 ± 18 kg/m3
mass density (807 K, Gas, DSC): 238.4 ± 14 kg/m3
mass density (809.2 K, Gas, DSC): 264.7 ± 29 kg/m3
mass density (809.6 K, Gas, DSC): 268.7 ± 29 kg/m3 and 299.5 ± 38 kg/m3
Triple point temperature (Crystal, Adiabatic calorimetry): 331.97 ± 0.039 K

— the NIST ThermoML archive (doi:10.1016/j.jct.2018.05.029)
